The test system of experiment [1] is human cervical tumor cell line HeLa (ATCC CCL-2). Put plainly: SAC-Formation - Nocodazole-Induced Assay. Format: cell-based. The settings on record: Homo sapiens, HeLa, 24 h, HeLa cells, nocodazole 0.1 μg/ml together with test compound, decrease of mitotic cells (phospho-histone H3 Ser10). Put shortly:
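Loss of phospho-histone H3 Ser10-positive cells, counted against Hoechst-stained nuclei by high-content imaging, marked mitotic breakthrough. Compounds (0.005–20 μM, 0.5% DMSO) were co-dosed with 0.1 μg/ml nocodazole onto HeLa cells for 24 h at 37 °C. Curves were fitted with a four-parameter Hill equation.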

A further experiment addresses T1, CDK2/CycE (Homo sapiens, UniProt P24941).
T1 construct: GST; purchased ProQinase GmbH (Freiburg, Germany); host or cells: insect cells (Sf9)
Put plainly: CDK2/CycE kinase assay (TR-FRET). Type of experiment: biochemical. The settings on record: avg, read-out: CDK2 avg (IC50 [mol/l]). Put shortly:
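Read-out is a TR-FRET 665/620 nm emission ratio from EDTA-stopped reactions detected with anti-pRB(pSer807/pSer811), Eu-labelled anti-mouse IgG and streptavidin-XL665, scaled between no-enzyme and uninhibited wells. Reaction: Sf9-expressed GST-CDK2/GST-CycE, 15 min compound preincubation, 10 μM ATP, 0.75 μM biotin-peptide, 25 min, 22° C., pH 8.0 Tris buffer.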

A value given as a limit tells only on which side of the number the result lay.

As to `Cc1nsc(Nc2cnc3ccccc3n2)c1C(=O)Nc1ccc(OC2CCN(CC(F)(F)F)CC2)nc1` [Example 21, 3-Methyl-5-(quinoxalin-2-ylamino)-N-(6-{[1-(2,2,2-trifluoroethyl)piperidin-4-yl]oxy}-pyridin-3-yl)-1,2-thiazole-4-carboxamide], the results for the IC50 (in experiment [1]; on CDK2/CycE) were 61 nM and no less than 20000 nM, respectively. Regarding `CC(=O)N1CCC(Oc2ccc(NC(=O)c3c(C)nsc3Nc3cnc4ccccc4n3)cn2)CC1` [Example 22, N-{6-[(1-acetylpiperidin-4-yl)oxy]pyridin-3-yl}-3-methyl-5-(quinoxalin-2-ylamino)-1,2-thiazole-4-carboxamide], the IC50 in experiment [1] was 580 nM; on CDK2/CycE, no less than 20000 nM. For `Cc1nsc(Nc2cc(C#N)ccn2)c1C(=O)Nc1ccc(OC2CCN(C(=O)OC(C)(C)C)CC2)nc1` [Example 23, tert-Butyl 4-({5-[({5-[(4-cyanopyridin-2-yl)amino]-3-methyl-1,2-thiazol-4-yl}-carbonyl)amino]pyridin-2-yl}oxy)piperidine-1-carboxylate], in that order: 49 nM and no less than 20000 nM.

Regarding `Cc1nsc(Nc2cc(C#N)ccn2)c1C(=O)Nc1ccc(OC2CCNCC2)nc1` [Example 24, 5-[(4-Cyanopyridin-2-yl)amino]-3-methyl-N-[6-(piperidin-4-yloxy)pyridin-3-yl]-1,2-thiazole-4-carboxamide], the IC50 in experiment [1] was 20000 nM; on CDK2/CycE it was no less than 20000 nM. As for `Cc1nsc(Nc2cc(C#N)ccn2)c1C(=O)Nc1ccc(OC2CCN(CC(F)(F)F)CC2)nc1` [Example 25, 5-[(4-Cyanopyridin-2-yl)amino]-3-methyl-N-(6-{[1-(2,2,2-trifluoroethyl)piperidin-4-yl]oxy}pyridin-3-yl)-1,2-thiazole-4-carboxamide], the values for the IC50 (in experiment [1]; at CDK2/CycE) were 16 nM and no less than 20000 nM, respectively. On to `CCN1CCC(Oc2ccc(NC(=O)c3c(C)nsc3Nc3cc(C#N)ccn3)cn2)CC1` [Example 26, 5-[(4-Cyanopyridin-2-yl)amino]-N-{6-[(1-ethylpiperidin-4-yl)oxy]pyridin-3-yl}-3-methyl-1,2-thiazole-4-carboxamide], for which the IC50 in experiment [1] is 2400 nM; on CDK2/CycE, no less than 20000 nM. Take `Cc1nsc(Nc2ccc(C#N)cn2)c1C(=O)Nc1ccc(OC2CCN(C(=O)OC(C)(C)C)CC2)nc1` [Example 27, tert-Butyl 4-({5-[({5-[(5-cyanopyridin-2-yl)amino]-3-methyl-1,2-thiazol-4-yl}-carbonyl)amino]pyridin-2-yl}oxy)piperidine-1-carboxylate]: the IC50 in experiment [1] was 150 nM; at CDK2/CycE, no less than 20000 nM. The like results for `Cc1nsc(Nc2cnc3ccccc3n2)c1C(=O)Nc1ccc(N2CCN(C(=O)OC(C)(C)C)CC2)nc1` [Example 248, tert-butyl 4-[5-({[3-methyl-5-(quinoxalin-2-ylamino)-1,2-thiazol-4-yl]carbonyl}amino)pyridin-2-yl]piperazine-1-carboxylate] were, in that order, 730 nM and greater than 20000 nM. With `Cc1nsc(Nc2cnc3ccccc3n2)c1C(=O)Nc1cccc(C(=O)NC2CC2)c1` [Example 249, N-[3-(cyclopropylcarbamoyl)phenyl]-3-methyl-5-(quinoxalin-2-ylamino)-1,2-thiazole-4-carboxamide], the IC50 in experiment [1] was 960 nM; on CDK2/CycE it was greater than 20000 nM. `Cc1nsc(Nc2ccc(C#N)cn2)c1C(=O)Nc1cccc(C(=O)NC2CC2)c1` [Example 250, 5-[(5-cyanopyridin-2-yl)amino]-N-[3-(cyclopropylcarbamoyl)phenyl]-3-methyl-1,2-thiazole-4-carboxamide]: the IC50 in experiment [1] was 790 nM; on CDK2/CycE it was greater than 20000 nM.

With `CCNC(=O)c1cccc(NC(=O)c2c(C)nsc2Nc2cnc3ccccc3n2)c1` [Example 251, N-[3-(ethylcarbamoyl)phenyl]-3-methyl-5-(quinoxalin-2-ylamino)-1,2-thiazole-4-carboxamide], the IC50 was 1500 nM in experiment [1] and greater than 20000 nM at CDK2/CycE. As for `CCNC(=O)c1cccc(NC(=O)c2c(C)nsc2Nc2ccc(C#N)cn2)c1` [Example 252, 5-[(5-cyanopyridin-2-yl)amino]-N-[3-(ethylcarbamoyl)phenyl]-3-methyl-1,2-thiazole-4-carboxamide], the IC50 in experiment [1] was 530 nM; on CDK2/CycE, greater than 20000 nM. The like results for `Cc1nsc(Nc2cnc3ccccc3n2)c1C(=O)Nc1cccc(C(=O)NC(C)C)c1` [Example 253, N-[3-(isopropylcarbamoyl)phenyl]-3-methyl-5-(quinoxalin-2-ylamino)-1,2-thiazole-4-carboxamide] were, in that order, 830 nM and greater than 20000 nM. For `Cc1nsc(Nc2cc(C#N)ccn2)c1C(=O)Nc1cccc(C(=O)NC(C)C)c1` [Example 254, 5-[(4-cyanopyridin-2-yl)amino]-N-[3-(isopropylcarbamoyl)phenyl]-3-methyl-1,2-thiazole-4-carboxamide], in that order: 2800 nM and greater than 20000 nM. With `Cc1nsc(Nc2ccc(C#N)cn2)c1C(=O)Nc1cccc(C(=O)NC(C)C)c1` [Example 255, 5-[(5-cyanopyridin-2-yl)amino]-N-[3-(isopropylcarbamoyl)phenyl]-3-methyl-1,2-thiazole-4-carboxamide], the IC50 is 3700 nM in experiment [1] and greater than 20000 nM at CDK2/CycE. As for `COC(=O)CCCc1ccc(NC(=O)c2c(C)nsc2Nc2cc(C#N)ccn2)cc1` [Example 256, methyl 4-{4-[({5-[(4-cyanopyridin-2-yl)amino]-3-methyl-1,2-thiazol-4-yl}carbonyl)amino]phenyl}butanoate], the IC50 in experiment [1] was 1600 nM; at CDK2/CycE, greater than 20000 nM.

As to `COC(=O)CCc1cccc(NC(=O)c2c(C)nsc2Nc2cnc3ccccc3n2)c1` [Example 257, methyl 3-[3-({[3-methyl-5-(quinoxalin-2-ylamino)-1,2-thiazol-4-yl]carbonyl}amino)phenyl]propanoate], the IC50 was 550 nM in experiment [1] and greater than 20000 nM at CDK2/CycE.

With `Cc1nsc(Nc2cnc3ccccc3n2)c1C(=O)Nc1cccc(NS(=O)(=O)C2CCN(C(=O)OC(C)(C)C)CC2)c1` [Example 258, tert-butyl 4-{[3-({[3-methyl-5-(quinoxalin-2-ylamino)-1,2-thiazol-4-yl]carbonyl}amino)phenyl]sulfamoyl} piperidine-1-carboxylate], the figures for the IC50 (in experiment [1]; on CDK2/CycE) were 600 nM and greater than 20000 nM, respectively.

Turning to `Cc1nsc(Nc2cnc(C(F)(F)F)cn2)c1C(=O)Nc1ccc(C(=O)NC2CCN(CC(F)F)CC2)cc1` [Example 259, N-(4-{[1-(2,2-difluoroethyl)piperidin-4-yl]carbamoyl}phenyl)-3-methyl-5-{[5-(trifluoromethyl)pyrazin-2-yl]amino}-1,2-thiazole-4-carboxamide], the IC50 was 400 nM in experiment [1] and greater than 20000 nM on CDK2/CycE. For `Cc1nsc(Nc2cnc(C(F)(F)F)cn2)c1C(=O)Nc1ccc(C(=O)N2CCN(CC(F)(F)F)CC2)cc1` [Example 260, 3-methyl-N-(4-{[4-(2,2,2-trifluoroethyl)piperazin-1-yl]carbonyl}phenyl)-5-{[5-(trifluoromethyl)pyrazin-2-yl]amino}-1,2-thiazole-4-carboxamide], in that order: 87 nM and greater than 20000 nM.

`CCN1CCN(C(=O)c2ccc(NC(=O)c3c(C)nsc3Nc3cnc(C(F)(F)F)cn3)cc2)CC1` [Example 261, N-{4-[(4-ethylpiperazin-1-yl)carbonyl]phenyl}-3-methyl-5-{[5-(trifluoromethyl)pyrazin-2-yl]amino}-1,2-thiazole-4-carboxamide]: the values for the IC50 (in experiment [1]; at CDK2/CycE) were 1100 nM and greater than 20000 nM, respectively. Turning to `Cc1nsc(Nc2cnc(C(F)(F)F)cn2)c1C(=O)Nc1ccc(C(=O)N2CCN(C)CC2)cc1` [Example 262, 3-methyl-N-{4-[(4-methylpiperazin-1 yl)carbonyl]phenyl}-5-{[5-(trifluoromethyl)pyrazin-2-yl]amino}-1,2-thiazole-4-carboxamide], the values for the IC50 (in experiment [1]; on CDK2/CycE) were 260 nM and greater than 20000 nM, respectively.

As for `Cc1nsc(Nc2cc(C#N)ccn2)c1C(=O)Nc1ccc(OC2CCN(CC(F)F)CC2)nc1` [Example 263, 5-[(4-cyanopyridin-2-yl)amino]-N-(6-{[1-(2,2-difluoroethyl)piperidin-4-yl]oxy}pyridin-3-yl)-3-methyl-1,2-thiazole-4-carboxamide], the IC50 was 920 nM in experiment [1] and greater than 20000 nM on CDK2/CycE.

For the compound `Cc1nsc(Nc2cnc3ccccc3n2)c1C(=O)Nc1cccc(NS(=O)(=O)C2CCN(CCC(F)(F)F)CC2)c1` [Example 283, 3-methyl-5-(quinoxalin-2-ylamino)-N-[3-({[1-(3,3,3-trifluoropropyl)piperidin-4-yl]sulfonyl}amino)phenyl]-1,2-thiazole-4-carboxamide], in experiment [1], the IC50 was found to be 3300 nM. On the same count and under the same terms, the figure for `Cc1nsc(Nc2cnc3ccccc3n2)c1C(=O)Nc1cccc(NS(=O)(=O)C2CN(CC(F)F)C2)c1` [Example 286, N-[3-({[1-(2,2-difluoroethyl)azetidin-3-yl]sulfonyl}amino)phenyl]-3-methyl-5-(quinoxalin-2-ylamino)-1,2-thiazole-4-carboxamide] is 4100 nM; for `Cc1nsc(Nc2cnc3ccccc3n2)c1C(=O)Nc1cccc(NS(=O)(=O)C2CCN(CC(F)(F)F)C2)c1` (stereo not shown) [Example 289, 3-methyl-5-(quinoxalin-2-ylamino)-N-[3-({[1-(2,2,2-trifluoroethyl)pyrrolidin-3-yl]sulfonyl}amino)phenyl]-1,2-thiazole-4-carboxamide] it is 1900 nM.

Source of the values: patent US20170334899A1, “AMINO-SUBSTITUTED ISOTHIAZOLES” (Bayer Pharma Aktiengesellschaft, priority 2014, published 2017).
